# Measured values published in publication PMC12038006, “Structure and mechanism of a mycobacterial isoniazid efflux pump MsRv1273c/72c with a degenerate nucleotide-binding site” (Nature Communications, 2025).
# Biological target: T1, MsRv1273c/72c (Mycolicibacterium smegmatis, UniProt A0R271+A0R272)
# T1 construct: gene MSMEG_5008
# Type: binding
# T1 sequence (A0R272 entry or part of it): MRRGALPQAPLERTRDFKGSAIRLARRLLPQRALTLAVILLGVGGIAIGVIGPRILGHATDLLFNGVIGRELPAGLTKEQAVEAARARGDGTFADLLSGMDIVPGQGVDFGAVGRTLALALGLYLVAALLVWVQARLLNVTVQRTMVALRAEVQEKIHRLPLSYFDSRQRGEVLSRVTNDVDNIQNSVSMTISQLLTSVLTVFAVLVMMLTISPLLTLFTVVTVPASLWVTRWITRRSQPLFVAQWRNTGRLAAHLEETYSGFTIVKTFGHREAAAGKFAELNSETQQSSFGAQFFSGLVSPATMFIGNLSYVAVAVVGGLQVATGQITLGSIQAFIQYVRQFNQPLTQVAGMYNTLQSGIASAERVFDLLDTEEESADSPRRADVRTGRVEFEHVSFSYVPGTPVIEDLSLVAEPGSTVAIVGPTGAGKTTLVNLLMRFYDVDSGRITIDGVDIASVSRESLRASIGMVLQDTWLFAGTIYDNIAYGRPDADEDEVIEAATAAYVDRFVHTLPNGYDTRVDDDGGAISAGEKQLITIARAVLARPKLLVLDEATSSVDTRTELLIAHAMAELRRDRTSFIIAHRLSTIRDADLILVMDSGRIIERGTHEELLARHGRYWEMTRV
# T1 sequence (A0R271 entry or part of it): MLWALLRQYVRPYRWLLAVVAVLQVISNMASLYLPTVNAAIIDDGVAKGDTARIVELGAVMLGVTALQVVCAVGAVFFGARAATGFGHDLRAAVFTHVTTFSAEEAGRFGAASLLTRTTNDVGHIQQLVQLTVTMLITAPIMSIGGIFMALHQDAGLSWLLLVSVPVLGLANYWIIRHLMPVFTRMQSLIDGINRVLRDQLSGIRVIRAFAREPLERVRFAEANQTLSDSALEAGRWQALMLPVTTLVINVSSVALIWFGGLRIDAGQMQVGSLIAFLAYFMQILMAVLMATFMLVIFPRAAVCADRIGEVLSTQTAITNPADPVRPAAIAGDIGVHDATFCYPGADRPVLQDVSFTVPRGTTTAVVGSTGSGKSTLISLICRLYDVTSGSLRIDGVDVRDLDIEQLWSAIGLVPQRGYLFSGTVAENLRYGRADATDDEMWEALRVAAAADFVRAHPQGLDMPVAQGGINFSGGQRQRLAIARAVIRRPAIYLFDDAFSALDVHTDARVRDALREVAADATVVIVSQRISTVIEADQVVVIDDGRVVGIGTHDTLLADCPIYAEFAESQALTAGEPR
row,Compound,cryo-EM structure
1,Nc1ncnc2c1ncn2[C@@H]1O[C@H](COP(=O)(O)OP(=O)(O)OP(=O)(O)O)[C@@H](O)[C@H]1O [ATP],"the degenerate site is bound with an ATP, which has not been hydrolyzed"
2,Nc1ncnc2c1ncn2[C@@H]1O[C@H](COP(=O)(O)OP(=O)(O)O)[C@@H](O)[C@H]1O [ADP],"In this structure, ADP binds at the consensus site"
3,Nc1ncnc2c1ncn2[C@@H]1O[C@H](COP(=O)(O)OP(=O)(O)NP(=O)(O)O)[C@@H](O)[C@H]1O [AMPPNP],"Though both NBSs bind AMPPNP, the NBDs are partially dimerized at the degenerate site"
